Laboratory results from PMC9421654, “Discovery of Substituted Di(pyridin-2-yl)-1,2,4-thiadiazol-5-amines as Novel Macrofilaricidal Compounds for the Treatment of Human Filarial Infections” (Journal of Medicinal Chemistry, 2022).
In brackets after ≈: the same amount, converted by molar mass. Read-outs that look alike come from different tables or passages of the source.

Legend:
[1] = tested on: O. gutturosa adult male worms; test: O. gutturosa adult worm ex vivo assay, MTT/formazan viability; assay type: cell-based, Onchocerca gutturosa; settings: supplement, SD in brackets in the PDF table, read-out: O. gutturosa EC50 (uM) MTT viability inhibition
Protocol: (§1) Activity against O. gutturosa adult male worms was determined using reported procedures.[7] The EC50 values were calculated using Microsoft Office Excel (2010) data analysis software. The tested compound is considered active when a motility reduction of ≥50% is observed by comparison to the untreated controls. O. gutturosa adult male worms were obtained postmortem from freshly slaughtered cattle. The worms were dissected from the nuchal ligament connective tissues of naturally infected cattle in Gambia, West Africa; the material was purchased from the International Trypanotolerance Centre, Banjul, from local butchers for use in this study. The adult worms were transferred individually to each well of a sterile 24-well (2 mL) plate (Thermo Fisher Scientific, UK) and maintained for at least 24 h in culture before use. The medium used was a minimum essential medium (MEM) with Earl’s salts and L-glutamine (Life Technologies Ltd., UK) supplemented with 10% heat inactivated newborn calf serum (Life Technologies Ltd., UK), 200 units/mL penicillin, 200 μg/mL streptomycin, and 0.5 μg/mL amphotericin B (Life Technologies Ltd., UK). Only normally active worms were used for the test, and all assays were conducted at 37 °C and 5% CO2. The positive control drug used was Immiticide (melarsomine dihydrochloride, Merial, USA). Known amounts of compounds were solubilized in 1 mL of DMSO. All stock solutions were allowed to stand at room temperature prior to use. The test items (four worms/drug concentration) were compared to untreated controls (six worms) and the positive control (two worms/drug concentration). Drug efficacy was assessed by the measurement of mean worm motility scores on a scale of 0 (immotile) to 10 (maximum) every 24 h, terminating at 120 h, using an Olympus inverted microscope. The results are reported as a percentage of the maximum score obtainable (100%) by calculating the motility index scores. The test drug is considered active when a motility reduction of ≥50% is observed by comparison to the untreated controls. […] In addition, biochemical evaluation of worm viability was assessed using MTT/formazan colorimetry. The MTT assay was carried out after the last motility reading (120 h). Single intact worms were placed in each well of a 48-well plate (Thermo Fisher Scientific, UK) containing 0.5 mL of 0.5 mg/mL MTT (Sigma, UK) in PBS solution and then incubated for 30 min at 37 °C. The worms were removed, blotted carefully, and individually transferred to separate wells of a 96-well microtiter plate, each containing 200 μL of DMSO to solubilize the formazan. After 1 h, the plate was gently agitated to disperse the color evenly and the absorbance value (optical density, OD) of the resulting formazan solution was determined at 490 nm using an absorbance microplate reader (Biotek ELx800, Thermo Fisher Scientific, UK). The results are expressed as the mean OD per drug concentration. Inhibition of formazan formation is correlated with worm damage or death.

[2] = Liver S9 metabolic stability assay, rat; assay type: in vitro ADME; settings: 3 μM, 60 min
Protocol: (§2) Liver S9 Metabolic Stability Assay: Incubations were performed at 37 °C in a Dubnoff Shaking water bath using 2 mL 96-well incubation plates. Rat and human S9 protein concentrations were 0.75 mg/ml and 1.2 mg/ml, respectively. The final concentrations of NADPH, UDPGA, and GSH were 1, 0.5, and 2.5 mM, and the final concentration of PAPS was 0.05 mg/ml. Substrate concentrations were 3µM, incubation time was 60 minutes, and all tests were done in triplicate. The incubation was conducted in 200 mM Tris buffer containing 2 mM magnesium chloride, pH=7.4 and the total incubation volume was 0.5 ml. Samples were analysed via LC-MS/MS and reported as percentage remaining after incubation for 60 minutes. […]

[3] = target: T1, hERG potassium channels (KCNH2, expressed in HEK293 cells) (Homo sapiens, UniProt Q12809); test: hERG inhibition; assay type: cell-based
T1 construct: expressed in transfected cells

[4] = Liver S9 metabolic stability assay, human; assay type: in vitro ADME; settings: 3 μM, 60 min
Protocol: as §2

[5] = tested on: O. gutturosa adult male worms; test: O. gutturosa adult worm ex vivo assay, motility; assay type: cell-based, Onchocerca gutturosa; settings: Onchocerca gutturosa
Protocol: as §1
Data S1. Onchocerca gutturosa adult male worms EC 50 Curves
Plotted using Graph Pad Prism 7.03, least square original fit, sigmoidal, 4PL
The measurement of mean worm motility every 24 h, terminating at 120 h, serial 1 in 4 drug dilutions to find
activity endpoint and produce EC50 values (geomean, n=2) for motility reduction. (4 worms per drug […]

[6] = Kinetic solubility measurement; assay type: physicochemical
Protocol: Kinetic Solubility Measurement: The standard kinetic solubility assay runs on […] concentration range using 10 mM DMSO stock solutions for plating. Single point calibration assay runs in duplicates. Concentration of standards: […] DMSO solutions prepared by diluting 10 mM stock, solution with DMSO. Concentration of samples: 200 µM, 4 µl 10 mM DMSO stock solution diluted with the appropriate buffer to […]. DMSO content:
2%. Buffers: pH=7.4 (0.1M Potassium phosphate buffer, diluted from Sigma 1M P3619-1GA to 0.1 M with MilliQ water), pH=2.2 (0.1M- NaCl pH adjusted with 0.1N HCL), pH=6.8 (0.1M - KH2PO4/K2HPO4), pH=5 (4 .04g of NaOH (Pellets), 8.65g of Glacial Acetic Acid, 11.874g of NaCl. In in 1 liter water. Adjusted to pH to 5 with either 1N NaOH or 1N HCl). The controls were plated from the standard 10 mM DMSO stock and run on the standard concentration (200µM) range of the assay. Incubation time: 24 hours shaking at […] in Millipore Multiscreen HTS filter plate for Aqueous Solubility Assay (MSSLBPC50), on room temperature.
After incubation time filtration with positive pressure manifold was performed. […]

[7] = LogD measurement (octanol-water); assay type: physicochemical
Protocol: LogD Measurement: Measurement of octanol-water distribution coefficient of samples using a […]
stock solutions for plating. Aqueous Phase: 100mM Buffer, pH=7.4 (0.1M Potassium phosphate buffer, diluted from Sigma 1M P3619-1GA to 0.1 M with MilliQ water), pH=2.2 (0.1M- NaCl pH adjusted with 0.1N HCL), pH=6.8 (0.1M - KH2PO4/K2HPO4), pH=5 (4 .04g of NaOH (Pellets), 8.65g of Glacial Acetic Acid, 11.874g of NaCl. In in 1 liter water. Adjusted to pH to 5 with either 1N NaOH or 1N HCl); Organic Phase: 1-Octanol (O021). Sample Concentration:
1000uM, […] 10 mM DMSO stock solution diluted in […] of organic Phase and […] of aqueous Phase. DMSO content: 10%. The controls were plated from the standard 10 mM DMSO stock and run on the standard concentration ([…]) range of the assay. Incubation time:
Sonication for 30 minutes followed by 24 hours shaking at 750 rpm in 96 deep well plate (VWR

THLE-2 cells = test: THLE-2 cytotoxicity assay (ATP); settings: Homo sapiens, THLE-2, read-out: THLE IC50
Protocol: In vitro cytotoxicity of select compounds was tested in a “normal” proliferating transformed human liver epithelial (THLE-2) cell line.[35] Compounds were incubated in THLE-2 cells for 24 and 72 h, and adenosine triphosphate (ATP) levels were used as an indicator of cell viability.
THLE-2 Cytotoxicity Assay: THLE-2 cells (ATCC, catalog #CRL-2706) were plated in LHC-8 Media (Invitrogen, catalog #12679015) supplemented with fetal bovine serum (GE, catalog #SH30088.03), 70 ng/mL phosphoethanolamine (Sigma, catalog #P0503), 5 ng/mL EGF (Sigma, catalog #E9644), 1X penicillin/streptomycin (Gibco, catalog #15140148), and 1X glutamine (Invitrogen, catalog #25030024) in 384-well clear-bottom, black walled plates at a density of 3750 cells/well (15μL/well). After plating, cells were incubated overnight at 37°C in an incubator with 5% CO2 and 90% humidity. Compounds were first serially diluted in dimethyl sulfoxide then diluted in LHC-8 media growth media to 2X concentration. Cells were dosed with 15μL of each dose for final concentrations between 0.01 – 300 μM. Cells were incubated with compounds for 24 or 72 hours. Cytotoxicity was determined with Cell Titer Glo Luminescent ATP Assay (Promega, catalog #G7573) according to the manufacturer’s instructions. Tamoxifen (Sigma, catalog #BC9353476) was used as a positive control. levels at each dose were normalized to that of cells dosed with dimethyl sulfoxide vehicle alone and IC50 values were calculated from non-linear regression fits of dose-response curves plotted

P-gp (MDR1) = target: T2, P-gp (MDR1) (Homo sapiens, UniProt P08183); test: MDCK/MDR1 permeability and efflux; assay type: in vitro ADME; settings: dog
T2 construct: expressed in transfected cells; host or cells: MDCK (Madin Darby canine kidney) cells
Source text: Our approach was to target compounds with efflux ratio (ER) >2.5 in the MDCK cell line transfected with MDR1 (multidrug resistance-1 transfected Madin Darby canine kidney cell line). […] Our goal was to impart structural elements designed to impart Pgp recognition.

[8] = read-out: O. gutturosa EC50 μM (SD), ex vivo adult worm motility reduction, SD in brackets
[9] = read-out: O. gutturosa EC50 (uM) motility inhibition, supplement, SD in brackets in the PDF table
[10] = supplement, read-out: measured logD

T1 sequence (Q12809 whole entry): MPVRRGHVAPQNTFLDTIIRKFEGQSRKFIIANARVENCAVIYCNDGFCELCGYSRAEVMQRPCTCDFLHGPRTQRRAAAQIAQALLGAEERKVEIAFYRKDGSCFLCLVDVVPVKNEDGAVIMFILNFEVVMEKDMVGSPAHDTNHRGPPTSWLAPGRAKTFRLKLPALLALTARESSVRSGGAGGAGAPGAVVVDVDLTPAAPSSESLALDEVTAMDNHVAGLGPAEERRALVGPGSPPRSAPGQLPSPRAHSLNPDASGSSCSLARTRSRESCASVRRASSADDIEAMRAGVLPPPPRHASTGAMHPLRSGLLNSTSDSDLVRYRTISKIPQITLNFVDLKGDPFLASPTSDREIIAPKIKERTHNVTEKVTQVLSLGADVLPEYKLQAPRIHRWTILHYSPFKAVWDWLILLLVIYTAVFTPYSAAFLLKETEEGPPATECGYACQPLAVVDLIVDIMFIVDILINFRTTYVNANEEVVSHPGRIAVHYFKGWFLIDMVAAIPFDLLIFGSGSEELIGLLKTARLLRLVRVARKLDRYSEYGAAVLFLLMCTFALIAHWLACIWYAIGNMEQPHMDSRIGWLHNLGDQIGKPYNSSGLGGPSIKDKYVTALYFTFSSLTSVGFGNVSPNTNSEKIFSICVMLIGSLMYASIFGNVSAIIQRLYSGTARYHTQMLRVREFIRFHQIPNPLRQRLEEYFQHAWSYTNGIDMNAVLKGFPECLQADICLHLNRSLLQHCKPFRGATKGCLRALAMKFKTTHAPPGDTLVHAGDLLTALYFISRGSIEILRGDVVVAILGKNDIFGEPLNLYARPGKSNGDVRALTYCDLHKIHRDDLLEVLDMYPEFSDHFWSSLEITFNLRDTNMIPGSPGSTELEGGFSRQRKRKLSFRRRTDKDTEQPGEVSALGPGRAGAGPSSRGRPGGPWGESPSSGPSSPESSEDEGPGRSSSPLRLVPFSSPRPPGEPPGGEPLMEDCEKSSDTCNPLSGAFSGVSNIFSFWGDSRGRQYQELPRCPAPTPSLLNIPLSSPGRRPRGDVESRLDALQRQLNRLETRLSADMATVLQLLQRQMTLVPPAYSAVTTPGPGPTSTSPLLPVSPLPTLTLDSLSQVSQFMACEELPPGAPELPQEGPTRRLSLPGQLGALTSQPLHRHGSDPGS
T2 sequence (P08183 whole entry): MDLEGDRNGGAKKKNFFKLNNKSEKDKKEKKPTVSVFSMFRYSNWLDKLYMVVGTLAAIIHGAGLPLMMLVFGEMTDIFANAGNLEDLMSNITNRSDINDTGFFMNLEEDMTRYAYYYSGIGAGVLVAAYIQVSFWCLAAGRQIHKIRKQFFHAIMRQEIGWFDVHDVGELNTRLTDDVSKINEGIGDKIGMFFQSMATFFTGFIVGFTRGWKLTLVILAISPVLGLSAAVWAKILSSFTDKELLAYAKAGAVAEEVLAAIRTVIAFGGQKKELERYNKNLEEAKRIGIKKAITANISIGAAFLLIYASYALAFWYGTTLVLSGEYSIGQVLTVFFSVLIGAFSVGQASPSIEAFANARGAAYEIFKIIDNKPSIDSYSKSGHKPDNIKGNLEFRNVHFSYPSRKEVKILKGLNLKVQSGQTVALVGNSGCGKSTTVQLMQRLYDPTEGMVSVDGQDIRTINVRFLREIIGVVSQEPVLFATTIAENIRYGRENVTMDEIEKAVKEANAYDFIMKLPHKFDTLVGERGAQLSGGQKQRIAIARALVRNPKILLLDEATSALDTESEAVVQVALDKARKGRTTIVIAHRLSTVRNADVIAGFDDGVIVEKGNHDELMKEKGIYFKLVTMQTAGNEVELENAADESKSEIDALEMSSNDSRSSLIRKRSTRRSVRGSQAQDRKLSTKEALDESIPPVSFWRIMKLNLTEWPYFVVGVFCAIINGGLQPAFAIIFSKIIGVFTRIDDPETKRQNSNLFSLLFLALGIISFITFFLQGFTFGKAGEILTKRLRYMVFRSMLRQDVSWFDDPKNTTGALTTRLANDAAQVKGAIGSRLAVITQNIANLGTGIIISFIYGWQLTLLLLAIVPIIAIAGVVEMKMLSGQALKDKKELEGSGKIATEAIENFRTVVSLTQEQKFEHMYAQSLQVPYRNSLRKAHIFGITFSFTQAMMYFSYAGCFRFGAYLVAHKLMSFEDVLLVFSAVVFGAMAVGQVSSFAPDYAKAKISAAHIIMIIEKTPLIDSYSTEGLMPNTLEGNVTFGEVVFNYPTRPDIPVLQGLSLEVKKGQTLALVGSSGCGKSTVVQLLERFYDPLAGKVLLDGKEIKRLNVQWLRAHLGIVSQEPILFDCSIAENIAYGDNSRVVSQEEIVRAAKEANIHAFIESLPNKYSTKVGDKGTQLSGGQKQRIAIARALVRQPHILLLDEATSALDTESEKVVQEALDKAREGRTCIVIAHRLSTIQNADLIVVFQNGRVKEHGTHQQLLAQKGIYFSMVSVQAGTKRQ

| SMILES | EC50 ([1]; Onchocerca gutturosa) [µM] | Rat S9 metabolic stability [2] [% remaining] | IC50 ([3]; supplement) [µM] | Human S9 metabolic stability [4] [% remaining] | EC50 [5, 8] [µM] | EC50 [5, 9] [µM] | EC50 ([5]; read-out: O. gutturosa EC50, adult worm motility, bound stated) [µM] | solubility kinetic at 24 h ([6]; 10 mM DMSO stock solutions) [µM] | logD at 24 h [7, 10] | logD at 24 h ([7]; pH 7.4, read-out: logD) | EC50 [1] [µM] | IC50 [3] [µM] | IC50 (THLE-2 cells) [µM] | solubility kinetic at 24 h ([6]; supplement) [µM] | Papp A→B (P-gp (MDR1)) [nm/s] |
| --- | --- | --- | --- | --- | --- | --- | --- | --- | --- | --- | --- | --- | --- | --- | --- |
| Cc1cccnc1Nc1nc(-c2ccc(OC3CCOCC3)cn2)ns1 [Compound 3] | 0.24 | 82 | 19 | 84 | 0.03 | 0.027 | < 0.1 | 7.3 (≈ 2.7 µg/mL) | 2.2 | – | – | – | – | – | – |
| Cc1cccnc1Nc1nc(-c2cc(C#N)c(OC(C)C)cn2)ns1 [Compound 15] | 0.71 | 84 | > 30 | 100 | 1.37 | – | – | 0.3 (≈ 0.106 µg/mL) | 2.3 | 2.3 | – | – | – | – | – |
| Cc1cccnc1Nc1nc(-c2ccc(C(=O)N(C)C)cn2)ns1 [Compound 18, N,N-Dimethyl-6-(5-((3-methylpyridin-2-yl)amino)-1,2,4-thiadiazol-3-yl)nicotinamide] | 0.09 | 94 | > 30 | 97 | 0.06 | 0.062 | – | 73.2 (≈ 24.9 µg/mL) | 1.7 | 1.7 | 0.087 | – | – | – | – |
| Cc1cccnc1Nc1nc(-c2ccc(OC3CCN(C4CC4)CC3(F)F)cn2)ns1 (stereo not shown) [Compound 20, 3-(5-((1-Cyclopropyl-3,3-difluoropiperidin-4-yl)oxy)pyridin-2-yl)-N-(3-methylpyridin-2-yl)-1,2,4-thiadiazol-5-amine] | 0.3 | 32 | – | 52 | 0.24 | 0.236 | – | – | 2.8 | 2.8 | – | > 30 | – | – | – |
| COc1cccnc1Nc1nc(-c2ccc(OC(C)C)cn2)ns1 [Compound 28, 3-(5-Isopropoxypyridin-2-yl)-N-(3-methoxypyridin-2-yl)-1,2,4-thiadiazol-5-amine] | 0.62 | 100 | – | 100 | 0.08 | 0.076 | – | 7.25 (≈ 2.49 µg/mL) | 1.7 | 1.7 | – | – | 7.7 | – | – |
| CC(=O)Nc1cccnc1Nc1nc(-c2ccc(OC(C)C)cn2)ns1 [Compound 46] | 1.37 | – | > 30 | – | 1.27 | – | – | 29.4 (≈ 10.9 µg/mL) | 2.4 | 2.4 | – | – | – | 29.5 (≈ 10.9 µg/mL) | – |
| CC(=O)N(C)c1cnc(Nc2nc(-c3ccc(OC(C)C)cn3)ns2)c(C)c1 [Compound 51] | 0.46 | – | – | – | 0.49 | 0.488 | – | 15 (≈ 5.98 µg/mL) | 2.2 | 2.2 | – | – | – | – | 303 |
| CC(C)Oc1cnc(-c2nsc(Nc3ncccc3N3CCCC3=O)n2)cc1C(F)(F)F [Compound 52, 1-(2-((3-(5-Isopropoxy-4-(trifluoromethyl)pyridin-2-yl)-1,2,4-thiadiazol-5-yl)amino)pyridin-3-yl)pyrrolidin-2-one] | 1.95 | – | – | – | 1.73 | – | – | 9.95 (≈ 4.62 µg/mL) | 2.7 | 2.7 | – | – | – | – | 129 |
| CC(=O)N(C)c1cc(C(F)(F)F)cnc1Nc1nc(-c2cc(OC(C)C)ccn2)ns1 [Compound 55, N-(2-((3-(4-Isopropoxypyridin-2-yl)-1,2,4-thiadiazol-5-yl)amino)-5-(trifluoromethyl)pyridin-3-yl)-N-methylacetamide] | 0.04 | – | – | – | 0.01 | 0.013 | – | – | 3 | 3 | – | – | – | – | 17 |
